Measurements taken from article PMC11606603, “The membrane domains of mammalian adenylyl cyclases are lipid receptors” (eLife, 2024).
Where “and” joins values, the source holds several entries; their conditions need not be identical. Equal entries are not always repeated. Where two headings read alike, the source gives them in different places.

What was measured:
mAC5(membr)–AC3(cat) = biological target: T1, mAC5(membr)–AC3(cat) (Homo sapiens, UniProt O60266+O95622); assay: AC assay, Gsα-stimulated chimera mAC5–3 in membranes from transfected HEK293 cells; assay type: biochemical; details: for Effect on Gsα-stimulated mAC5(membr)–AC3(cat) chimera: 300 nM Gsα, 20 µM oleic acid or 100 µM anandamide, in words
T1 construct: followed by AC5(1–402)_AC3(250–631)_AC5(761–1009)_AC3(862–1144); made in house; host or cells: HEK293, transfected; membrane preparation
T1 sequence (O95622 1-402): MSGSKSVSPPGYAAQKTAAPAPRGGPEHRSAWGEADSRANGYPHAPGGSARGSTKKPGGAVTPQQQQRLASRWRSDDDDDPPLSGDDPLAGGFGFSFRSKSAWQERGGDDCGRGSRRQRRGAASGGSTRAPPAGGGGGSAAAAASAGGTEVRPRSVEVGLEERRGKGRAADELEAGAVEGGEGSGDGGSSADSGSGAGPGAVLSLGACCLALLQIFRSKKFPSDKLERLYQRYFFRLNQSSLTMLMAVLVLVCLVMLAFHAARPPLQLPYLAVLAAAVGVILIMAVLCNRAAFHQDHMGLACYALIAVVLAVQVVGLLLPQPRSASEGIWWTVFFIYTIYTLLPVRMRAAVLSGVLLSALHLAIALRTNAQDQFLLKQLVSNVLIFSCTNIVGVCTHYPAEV
T1 sequence (O60266 250-631): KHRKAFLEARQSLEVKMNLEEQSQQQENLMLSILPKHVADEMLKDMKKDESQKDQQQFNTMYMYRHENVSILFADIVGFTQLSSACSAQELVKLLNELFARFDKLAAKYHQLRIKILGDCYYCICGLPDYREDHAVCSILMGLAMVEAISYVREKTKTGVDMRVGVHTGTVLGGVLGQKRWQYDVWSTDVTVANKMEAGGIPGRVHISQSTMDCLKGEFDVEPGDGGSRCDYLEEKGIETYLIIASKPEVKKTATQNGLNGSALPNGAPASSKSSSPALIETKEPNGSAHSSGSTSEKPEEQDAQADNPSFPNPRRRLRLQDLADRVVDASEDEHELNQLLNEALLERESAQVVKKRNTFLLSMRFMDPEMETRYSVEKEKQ
T1 sequence (O95622 761-1009): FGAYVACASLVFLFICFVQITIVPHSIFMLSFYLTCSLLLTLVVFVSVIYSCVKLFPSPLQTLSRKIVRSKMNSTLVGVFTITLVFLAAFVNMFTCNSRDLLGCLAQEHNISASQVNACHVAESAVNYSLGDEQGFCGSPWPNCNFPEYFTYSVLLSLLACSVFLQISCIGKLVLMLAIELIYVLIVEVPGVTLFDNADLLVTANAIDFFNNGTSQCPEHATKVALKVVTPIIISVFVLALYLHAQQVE
T1 sequence (O60266 862-1144): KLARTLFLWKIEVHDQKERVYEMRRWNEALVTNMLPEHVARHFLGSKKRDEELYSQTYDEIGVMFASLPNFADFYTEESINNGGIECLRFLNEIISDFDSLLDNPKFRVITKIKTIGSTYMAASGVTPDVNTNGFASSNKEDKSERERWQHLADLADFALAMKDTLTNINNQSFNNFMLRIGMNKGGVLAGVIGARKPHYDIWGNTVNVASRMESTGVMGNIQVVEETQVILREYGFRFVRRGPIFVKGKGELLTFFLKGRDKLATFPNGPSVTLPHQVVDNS
Procedure: (§1) hAC sequences were from NCBI were: ADCY1: NM_021116.3; ADCY2: NM_020546.2; ADCY3: NM_004036.4; ADCY4: NM_001198568.2; ADCY5: NM_183357.2; ADCY6: NM_015270.4; ADCY7: NM_001114.4; ADCY8: NM_001115.2; ADCY9: NM_001116.3. Human mAC genes were from GenScript and fitted with a C-terminal FLAG-tag. […] The gene was synthesized by GenScript. HEK293 cells were maintained in Dulbeccos Modified Eagle Medium (DMEM) with 10% fetal bovine serum at 37°C and 5% CO2. Transfection with AC plasmids was with PolyJet (SignaGen, Frederick, MD, USA). Permanent cell lines were generated by selection for 7 days with 600 µg/ml G418 and maintained with 300 µg/ml For membrane preparation, cells were tyrpsinized, collected by centrifugation (3000 × g, 5 min) and lysed and homogenized in 20 mM HEPES, pH 7.5, 1 mM Ethylenediaminetetraacetic acid (EDTA), 2 mM MgCl2, 1 mM Dithiothreitol (DTT), one tablet of cOmplete, EDTA-free (per 50 ml) and 250 mM sucrose by 20 strokes in a potter homogenizer on ice. Debris was removed (5 min at 1000 × g, 0°C), membranes were collected at 100,000 × g, 60 min at 0°C, suspended and stored at −80°C in 20 mM MOPS, pH 7.5, 0.5 mM EDTA, 2 mM MgCl2. Membrane preparation from mouse brain cortex was according to [Seth et al., 2020]; [Schultz and Schmidt, 1987]. Three cerebral cortices were dissected and homogenized in 4.5 ml cold 48 mM Tris–HCl, pH 7.4, 12 mM MgC1_2, and 0.1 mM Ethylene glycol-bis(β-aminoethyl ether)-N,N,N′,N′-tetraacetic acid (EGTA) with a Polytron hand disperser (Kinematica AG, Switzerland). The homogenate was centrifuged for 15 min at 12,000 × g at 4°C. The pellet was washed once with 5 ml 1 mM KHCO3. The final suspension in 2 ml 1 mM KHCO3 was stored in aliquots at −80°C.
In a volume of 10 μl, AC activities were measured using 1 mM ATP, 2 mM MgCl2, 3 mM creatine phosphate, 60 μg/ml creatine kinase, and 50 mM MOPS pH 7.5. The cAMP assay kit from Cisbio (Codolet, France) was used for detection according to the supplier’s instructions. For each assay, a cAMP standard curve was established. EC50 and IC50 values were calculated by GraphPad Prism version 8.4.3 for Windows, GraphPad Software, San Diego, CA, USA, https://www.graphpad.com .

[1] = biological target: T2, HEK293 cells permanently transfected with mAC5 (Homo sapiens, UniProt O95622); assay: cAMP accumulation assay, isoproterenol-stimulated HEK-mAC5 cells; assay type: cell-based
T2 construct: Human mAC genes were from GenScript and fitted with a C-terminal FLAG-tag; FLAG (C); expressed in transfected cells; host or cells: HEK293, permanently transfected
T2 sequence (O95622 whole entry): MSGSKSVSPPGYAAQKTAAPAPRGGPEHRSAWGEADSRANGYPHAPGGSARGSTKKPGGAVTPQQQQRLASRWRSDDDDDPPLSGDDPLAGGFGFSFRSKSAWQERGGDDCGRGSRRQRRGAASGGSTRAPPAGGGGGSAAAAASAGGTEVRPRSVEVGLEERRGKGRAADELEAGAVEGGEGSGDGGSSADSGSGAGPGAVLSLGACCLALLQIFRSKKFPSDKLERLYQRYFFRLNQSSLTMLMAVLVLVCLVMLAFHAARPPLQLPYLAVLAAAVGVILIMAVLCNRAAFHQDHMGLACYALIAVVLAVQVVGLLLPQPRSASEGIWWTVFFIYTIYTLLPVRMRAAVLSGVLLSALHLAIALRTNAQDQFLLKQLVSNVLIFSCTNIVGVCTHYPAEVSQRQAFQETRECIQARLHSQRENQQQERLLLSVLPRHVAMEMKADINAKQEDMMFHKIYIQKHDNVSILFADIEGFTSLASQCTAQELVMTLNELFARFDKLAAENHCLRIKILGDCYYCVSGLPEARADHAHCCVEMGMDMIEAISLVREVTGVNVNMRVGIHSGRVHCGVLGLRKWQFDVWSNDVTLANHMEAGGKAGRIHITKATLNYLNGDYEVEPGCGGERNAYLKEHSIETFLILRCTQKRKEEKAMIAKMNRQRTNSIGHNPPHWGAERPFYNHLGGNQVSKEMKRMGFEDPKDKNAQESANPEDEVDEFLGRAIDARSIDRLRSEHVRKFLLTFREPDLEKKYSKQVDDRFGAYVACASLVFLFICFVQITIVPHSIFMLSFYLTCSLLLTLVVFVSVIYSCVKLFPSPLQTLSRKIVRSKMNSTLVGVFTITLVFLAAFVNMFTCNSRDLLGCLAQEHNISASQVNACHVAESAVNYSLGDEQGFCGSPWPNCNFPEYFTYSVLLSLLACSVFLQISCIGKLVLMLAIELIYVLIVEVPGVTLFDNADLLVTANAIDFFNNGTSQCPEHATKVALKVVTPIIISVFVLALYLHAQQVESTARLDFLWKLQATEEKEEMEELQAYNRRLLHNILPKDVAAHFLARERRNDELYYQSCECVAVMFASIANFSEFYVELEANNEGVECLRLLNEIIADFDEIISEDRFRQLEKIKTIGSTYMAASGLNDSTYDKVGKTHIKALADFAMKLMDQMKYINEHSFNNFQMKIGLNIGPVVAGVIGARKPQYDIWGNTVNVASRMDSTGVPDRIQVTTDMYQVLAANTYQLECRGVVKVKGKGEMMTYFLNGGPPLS
Procedure: as §1
(§2) HEK293 cells stably expressing mAC isoforms 3, 5, and mAC5(membr)_mAC3(cat) were plated at 2500–10,000 cells/well into 384-well plates. […]. Addition of Cisbio HTRF detection reagents stopped the reaction and cAMP levels were determined.

[2] = biological target: T3, HEK293-mAC5(membr)–AC3(cat) cells (Homo sapiens, UniProt O60266+O95622); assay: cAMP accumulation assay, isoproterenol-stimulated HEK-mAC5–3 cells; assay type: cell-based
T3 construct: followed by AC5(1–402)_AC3(250–631)_AC5(761–1009)_AC3(862–1144); expressed in transfected cells; host or cells: HEK293, stably expressing the chimera
T3 sequence (O95622 1-402): as the sequence (O95622 1-402) above
T3 sequence (O60266 250-631): as the sequence (O60266 250-631) above
T3 sequence (O95622 761-1009): as the sequence (O95622 761-1009) above
T3 sequence (O60266 862-1144): as the sequence (O60266 862-1144) above
Procedure: as §1, §2

mAC9 = biological target: T4, mAC9 (Homo sapiens, UniProt O60503); assay: AC assay, Gsα-stimulated mAC9 in membranes from transfected HEK293 cells; assay type: biochemical
T4 construct: Human mAC genes were from GenScript and fitted with a C-terminal FLAG-tag; FLAG (C); made in house; host or cells: HEK293, permanently transfected; membrane preparation
T4 sequence (O60503 whole entry): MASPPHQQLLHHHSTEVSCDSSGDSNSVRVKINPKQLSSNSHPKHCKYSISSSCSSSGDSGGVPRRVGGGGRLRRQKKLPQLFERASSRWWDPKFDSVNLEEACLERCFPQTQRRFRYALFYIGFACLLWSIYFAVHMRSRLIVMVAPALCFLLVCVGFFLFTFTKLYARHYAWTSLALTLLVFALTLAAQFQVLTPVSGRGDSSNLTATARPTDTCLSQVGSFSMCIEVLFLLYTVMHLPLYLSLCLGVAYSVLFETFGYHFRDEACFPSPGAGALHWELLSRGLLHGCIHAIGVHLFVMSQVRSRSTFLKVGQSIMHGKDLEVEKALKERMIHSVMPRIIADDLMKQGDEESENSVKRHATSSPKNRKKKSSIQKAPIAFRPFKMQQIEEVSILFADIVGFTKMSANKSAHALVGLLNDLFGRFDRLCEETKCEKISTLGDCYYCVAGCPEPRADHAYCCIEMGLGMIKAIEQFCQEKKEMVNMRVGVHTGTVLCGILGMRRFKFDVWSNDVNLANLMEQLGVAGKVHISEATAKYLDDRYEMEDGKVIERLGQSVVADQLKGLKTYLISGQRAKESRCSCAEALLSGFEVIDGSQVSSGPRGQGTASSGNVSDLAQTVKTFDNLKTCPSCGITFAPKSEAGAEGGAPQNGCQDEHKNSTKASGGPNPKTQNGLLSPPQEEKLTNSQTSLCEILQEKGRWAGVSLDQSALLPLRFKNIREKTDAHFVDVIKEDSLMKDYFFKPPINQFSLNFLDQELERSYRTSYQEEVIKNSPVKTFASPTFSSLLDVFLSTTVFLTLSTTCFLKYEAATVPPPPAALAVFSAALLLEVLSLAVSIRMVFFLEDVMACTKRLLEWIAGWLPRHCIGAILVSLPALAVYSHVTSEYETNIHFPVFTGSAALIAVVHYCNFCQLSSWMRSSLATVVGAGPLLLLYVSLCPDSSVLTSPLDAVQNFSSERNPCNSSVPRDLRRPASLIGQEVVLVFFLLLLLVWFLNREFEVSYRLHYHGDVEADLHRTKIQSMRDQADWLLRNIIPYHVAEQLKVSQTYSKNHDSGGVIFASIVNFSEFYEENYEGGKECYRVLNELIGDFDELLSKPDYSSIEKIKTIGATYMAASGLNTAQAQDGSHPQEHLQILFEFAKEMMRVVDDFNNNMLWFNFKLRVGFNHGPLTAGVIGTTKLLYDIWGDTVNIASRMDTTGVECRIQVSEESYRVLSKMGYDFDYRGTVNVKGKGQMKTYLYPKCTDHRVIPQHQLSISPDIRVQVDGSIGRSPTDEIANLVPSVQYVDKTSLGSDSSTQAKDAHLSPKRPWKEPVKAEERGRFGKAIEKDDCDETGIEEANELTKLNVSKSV
T4 sequence (P63092 2-394 Q227L partner): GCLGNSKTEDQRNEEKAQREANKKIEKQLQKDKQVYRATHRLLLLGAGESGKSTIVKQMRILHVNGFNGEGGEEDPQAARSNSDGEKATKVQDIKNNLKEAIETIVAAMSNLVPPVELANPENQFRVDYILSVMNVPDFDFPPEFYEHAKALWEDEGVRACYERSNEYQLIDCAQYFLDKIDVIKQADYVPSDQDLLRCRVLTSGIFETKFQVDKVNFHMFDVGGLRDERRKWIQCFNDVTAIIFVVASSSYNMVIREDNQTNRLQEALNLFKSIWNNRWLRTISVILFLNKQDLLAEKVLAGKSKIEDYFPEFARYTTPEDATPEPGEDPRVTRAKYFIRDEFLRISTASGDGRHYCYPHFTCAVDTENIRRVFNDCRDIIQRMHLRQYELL
Method in brief: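 Adenylyl cyclase activity was measured in 100,000 × g membrane fractions prepared from HEK293 cells permanently transfected with C-terminally FLAG-tagged human AC isoforms. Assays contained 1 mM ATP and 2 mM MgCl2 with an ATP-regenerating system at pH 7.5.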

[3] = 20 µM fatty acid, 300 nM Gsα, single experiments

## CCCCC/C=C\C/C=C\C/C=C\C/C=C\CCCC(=O)NCCO [Anandamide, arachidonoylethanolamide]
mAC5(membr)–AC3(cat)
  Effect on Gsα-stimulated mAC5(membr)–AC3(cat) chimera: attenuated
mAC5(membr)–AC3(cat); attenuation of 300 nM Gsα-stimulated activity
  IC50: 29 µM
mAC5(membr)–AC3(cat); mAC 5-3, 100µM Anandamide concentration, Figure 9 D
  activity [%] (100% = 300nM Gsα stimulation): 41% and 69% and 72% and 65% and 48% and 42%
mAC5(membr)–AC3(cat); mAC5-3, Anandamide 0.1 µM
  activity [%] (100% = 300nM Gsα stimulation): 100%
mAC5(membr)–AC3(cat); mAC5-3, Anandamide 1 µM
  activity [%] (100% = 300nM Gsα stimulation): 126% and 93% and 106% and 127% and 130% and 123%
mAC5(membr)–AC3(cat); mAC5-3, Anandamide 3 µM
  activity [%] (100% = 300nM Gsα stimulation): 121% and 102% and 118% and 146% and 144% and 129%
mAC5(membr)–AC3(cat); mAC5-3, Anandamide 10 µM
  activity [%] (100% = 300nM Gsα stimulation): 109% and 100% and 102% and 111% and 132% and 115%
mAC5(membr)–AC3(cat); mAC5-3, Anandamide 30 µM
  activity [%] (100% = 300nM Gsα stimulation): 77% and 70% and 88% and 68% and 74%
mAC5(membr)–AC3(cat); mAC5-3, Anandamide 100 µM
  activity [%] (100% = 300nM Gsα stimulation): 72% and 65% and 48% and 42% and 41% and 69%
[1]; 2.5 µM isoproterenol
  IC50: 133 µM
[1]; 100 µM anandamide, 2.5 µM isoproterenol
  attenuation of cAMP formation in HEK293-mAC5 cells: 23%
[1]; Anandamide 1 µM
  HEK-mAC activity (%); 100%= 2.5µM Isoproterenol stimulation, HEK-mAC5: 110% and 105% and 81% and 111% and 118% and 98% and 96% and 86%
[1]; Anandamide 3 µM
  HEK-mAC activity (%); 100%= 2.5µM Isoproterenol stimulation, HEK-mAC5: 110% and 102% and 93% and 132%
[1]; Anandamide 10 µM
  HEK-mAC activity (%); 100%= 2.5µM Isoproterenol stimulation, HEK-mAC5: 108% and 103% and 116% and 87% and 120% and 105% and 102%
[1]; Anandamide 30 µM
  HEK-mAC activity (%); 100%= 2.5µM Isoproterenol stimulation, HEK-mAC5: 98% and 88% and 95% and 102%
[1]; Anandamide 60 µM
  HEK-mAC activity (%); 100%= 2.5µM Isoproterenol stimulation, HEK-mAC5: 95% and 75% and 88% and 93% and 110%
[1]; Anandamide 100 µM
  HEK-mAC activity (%); 100%= 2.5µM Isoproterenol stimulation, HEK-mAC5: 79% and 86% and 94% and 77% and 62% and 71%
[1]; HEK293, read-out: HEK-mAC activity (%), 100%= 2.5µM Isoproterenol stimulation, HEK-mAC5, Anandamide 0.1 µM
  activity at 0.1 µM: 100%
[1]; HEK293, read-out: HEK-mAC activity (%), 100%= 2.5µM Isoproterenol stimulation, HEK-mAC5, Anandamide 30 µM
  activity at 30 µM: 100%
[1]; up to 100 µM, data not shown, in words
  Effect on basal activity of HEK-mAC5: no effect
[2]; 2.5 µM isoproterenol
  attenuation of cAMP formation in HEK293-mAC5(membr)–AC3(cat) cells: 66%
[2]; 2.5 µM isoproterenol, +0.5 mM IBMX
  IC50: 60 µM
[2]; read-out: HEK-mAC activity (%), 100%= 2.5µM Isoproterenol stimulation, HEK-mAC5-3, Anandamide 0.1 µM
  activity at 0.1 µM: 100%
[2]; read-out: HEK-mAC activity (%), 100%= 2.5µM Isoproterenol stimulation, HEK-mAC5-3, Anandamide 100 µM
  activity at 100 µM: 41%

## CCCCC/C=C\C/C=C\C/C=C\C/C=C\CCCC(=O)O [Arachidonic acid, Arachidonic ((5Z,8Z,11Z,14Z)-eicosatetraenoic) acid]
mAC9
  EC50: 7.5 µM
mAC9; 1 µM fatty acid, 300 nM Gsα, single experiments
  mAC9 activity (%);(100% = Gsα stimulation) stimulated by 300nM Gsα: 99% and 60% and 111% and 93%
mAC9; [3]
  mAC9 activity (%);(100% = Gsα stimulation) stimulated by 300nM Gsα: 234% and 150% and 190% and 172% and 188% and 135%
  mAC9 activity [%] (100% = 300nM Gsα stimulation); 20µM fatty acid concentration: 172% and 188% and 135% and 234% and 150% and 190%

## CCCCCCCC/C=C\CCCCCCCC(=O)O [Oleic acid, Oleic ((9Z)-octadecenoic) acid]
mAC9; 20 µM, in words
  Effect of lipid on 300 nM Gsα-stimulated mAC9: significantly enhanced
mAC9; Figure 5 B, oleic acid 0.3 µM
  mAC9 activity [%] (100% = 300nM Gsα stimulation): 100%
mAC9; enhancement of 300 nM Gsα-stimulated activity, read-out: EC50 for mAC9
  EC50: 7.8 µM
mAC5(membr)–AC3(cat)
  Effect on Gsα-stimulated mAC5(membr)–AC3(cat) chimera: not enhanced
[1]; 2.5 µM isoproterenol, in words
  Effect on isoproterenol-stimulated cAMP formation in HEK-mAC5: unaffected
[1]; HEK-mAC5, oleic acid 20 µM
  AC activity (%); 100%= 2.5µM Isoproterenol stimulation: 107% and 100% and 135%
[2]; in words, data not shown
  Effect on cAMP formation in HEK293-mAC5(membr)–AC3(cat) cells: ineffective
